# Laboratory results taken from US7253296B2, “Acylated aminopropanediols and analogues and therapeutic uses thereof” (Genfit, priority 2003, dated 2007).
# What was measured:
# [1] = tested on: LDL; test: Protection against LDL oxidation induced by copper (conjugated diene formation, OD 234 nm); format: biochemical; conditions: for intrinsic antioxidant properties (delay of copper-induced LDL oxidation): FIG. 2; for shift of the lag phase latency (conjugated diene formation): relative to control sample, FIG. 2a
# Protocol: Oxidation of LDL is an important modification which plays a major role in the onset and development of atherosclerosis (Jurgens, Hoff et al. 1987). […] Unless otherwise indicated, all reagents were from Sigma (St Quentin, France).
# LDL were prepared as described in Lebeau et al. (Lebeau, Furman et al. 2000). The solutions of the test compounds were prepared at 10^−2 M in ethanol and diluted in PBS so that the final concentration ranged from 0.1 to 100 μM with a total ethanol concentration of 1% (VN).
# Before oxidation, EDTA was removed from the LDL preparation by dialysis. The oxidation reaction was then carried out at 30° C. by adding 100 μl of 16.6 μM CuSO4 to 800 μl of LDL (125 μg protein/ml) and 100 μl of a test compound solution. The formation of dienes, the species to be followed, was measured by the optical density at 234 nm in the samples treated with the compounds in the presence or absence of copper. Optical density at 234 nm was measured every 10 minutes for 8 hours on a thermostated spectrophotometer (Kontron Uvikon 930). The analyses were carried out in triplicate. A compound was considered to have antioxidant activity when it shifted the lag phase latency relative to the control sample. […] FIG. 2 presents an example of the results obtained with the inventive compounds.
# [2] = target: T1, Gal4/hPPARα (Homo sapiens, UniProt Q07869); test: Gal4/PPARα transactivation system in HepG2 cells (luciferase reporter); conditions: for induction factor (luminescent signal of treated cells divided by that of untreated cells): HepG2 cells, Gal4/PPARα, 24 h, FIG. 3
# T1 sequence (Q07869 239-466 limits assumed): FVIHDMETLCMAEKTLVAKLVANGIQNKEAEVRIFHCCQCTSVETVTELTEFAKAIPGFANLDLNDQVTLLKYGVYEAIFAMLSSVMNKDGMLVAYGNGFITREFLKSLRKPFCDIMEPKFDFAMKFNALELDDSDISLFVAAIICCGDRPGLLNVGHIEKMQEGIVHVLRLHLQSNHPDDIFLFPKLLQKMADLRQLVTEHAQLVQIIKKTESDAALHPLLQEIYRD
# Protocol: PPAR activation was tested in vitro in RK13 fibroblast cell lines or in a hematocyte line HepG2 by measuring the transcriptional activity of chimeras composed of the DNA binding domain of the yeast gal4 transcription factor and the ligand binding domain of the different PPARs.
# HepG2 cells were from ECACC (Porton Down, UK) and were grown in DMEM medium supplemented with 10% (VN) fetal calf serum, 100 U/ml penicillin (Gibco, Paisley, UK) and 2 mM L-glutamine (Gibco, Paisley, UK). The culture medium was changed every two days. Cells were kept at 37° C. in a humidified 95% air/5% CO2 atmosphere.
# The plasmids pG5TkpGL3, pRL-CMV, pGal4-hPPAR□, pGal4-hPPAR□ and pGal4-f have been described by Raspe et al. (Raspe, Madsen et al. 1999).
# HepG2 cells were seeded in 24-well culture dishes at 5×10^4 cells/well and transfected for 2 hours with the reporter plasmid pG5TkpGL3 (50 ng/well), the expression vectors pGal4-f, pGal4-mPPARα, pGal4-hPPARα, pGal4-hPPARγ, pGal4-hPPARβ (100 ng/well) and the transfection efficiency control vector pRL-CMV (1 ng/well) according to the previously described protocol (Raspe, Madsen et al. 1999), then incubated for 36 hours with the test compounds. At the end of the experiment, the cells were lysed (Gibco, Paisley, UK) and luciferase activity was determined with a Dual-Luciferase™ Reporter Assay System kit (Promega, Madison, Wis., USA) according to the supplier's instructions. The protein content of the cell extracts was then measured with the Bio-Rad Protein Assay kit (Bio-Rad, Munich, Germany) as directed by the supplier.
# The results are expressed as the induction factor (luminescent signal of treated cells divided by luminescent signal of untreated cells) after the different treatments.
molecule,measurement,setting,value
"1,2-(ditetradecylthioacetyloxy)-3-palmitoylaminopropane [Ex 6]",intrinsic antioxidant properties (delay of copper-induced LDL oxidation),[1],exhibit intrinsic antioxidant properties
same,induction factor (luminescent signal of treated cells divided by that of untreated cells),[2]; 5 μM,1.1 fold
same,induction factor (luminescent signal of treated cells divided by that of untreated cells),[2]; 15 μM,2.2 fold
same,induction factor (luminescent signal of treated cells divided by that of untreated cells),[2]; 50 μM,9.6 fold
same,induction factor (luminescent signal of treated cells divided by that of untreated cells),[2]; 100 μM,14.5 fold
same,"PPARα activation (luciferase activity / luminescent signal), in words",[2]; cells transfected with pGal4-hPPARα plasmid,induced an increase in the luminescent signal
"1,2-(dipalmitoyloxy)-3-tetradecylthioacetylaminopropane [Ex 4]",intrinsic antioxidant properties (delay of copper-induced LDL oxidation),[1],exhibit intrinsic antioxidant properties
same,shift of the lag phase latency (conjugated diene formation),[1],34.3%
"CCCCCCCCCCCCCCSCC(=O)NCC(CNC(=O)CSCCCCCCCCCCCCCC)OC(=O)CSCCCCCCCCCCCCCC [Ex 11, 1,3-ditetradecylthioacetylamino-2-(tetradecylthioacetyloxy)propane]",intrinsic antioxidant properties (delay of copper-induced LDL oxidation),[1],exhibit intrinsic antioxidant properties
"1,2-(ditetradecylthioacetyloxy)-3-tetradecylthioacetylaminopropane [Ex 5]",intrinsic antioxidant properties (delay of copper-induced LDL oxidation),[1],exhibit intrinsic antioxidant properties
same,induction factor (luminescent signal of treated cells divided by that of untreated cells),[2]; 5 μM,"1,2 fold"
same,induction factor (luminescent signal of treated cells divided by that of untreated cells),[2]; 15 μM,2.5 fold
same,induction factor (luminescent signal of treated cells divided by that of untreated cells),[2]; 50 μM,7 fold
same,induction factor (luminescent signal of treated cells divided by that of untreated cells),[2]; 100 μM,10.5 fold
"CCCCCCCCCCCCCCCC(=O)NCC(O)CO (stereo not shown) [Ex 3, 3-(palmitoylamino)propane-1,2-diol]",melting point,,104 to 108 °C
"CCCCCCCCCCCCCCSCC(=O)NCC(O)CO (stereo not shown) [Ex 2, 3-(tetradecylthioacetylamino)propane-1,2-diol]",intrinsic antioxidant properties (delay of copper-induced LDL oxidation),[1],exhibit intrinsic antioxidant properties
same,shift of the lag phase latency (conjugated diene formation),[1],more than 13%
same,induction factor (luminescent signal of treated cells divided by that of untreated cells),[2]; 5 μM,1.5 fold
same,induction factor (luminescent signal of treated cells divided by that of untreated cells),[2]; 15 μM,7.7 fold
same,induction factor (luminescent signal of treated cells divided by that of untreated cells),[2]; 50 μM,19.8 fold
same,induction factor (luminescent signal of treated cells divided by that of untreated cells),[2]; 100 μM,19.2 fold
CCCCCCCCCCCCCCCC(=S)OC(CN)CN.Cl.Cl,melting point,,224 °C (dec.)
